Values joined by “and” are separate entries in the source; they are usually repeats but may differ in a detail not shown here. Equal entries are not always repeated. Where a SMILES comes first, the peptide text is derived from it. [ ]: non-standard residue; d: D form. Hyp = O=C(O)[C@@H]1C[C@@H](O)CN1
How the values were obtained:
[1] = tested on: IL-8/CXCL8; assay: Example 8 main study Luminex, LPS hPBMCs: IL-8/CXCL8; format: cell-based, human; settings: for IL-8/CXCL8 Concentration: single replicates (1st, 2nd, 3rd)
Method: (§1) Human PBMCs were pretreated with YY-101, YDE-011, YDE-043 or reference compound; Xiidra® at various concentration (ranging from […] to 500 nM) for 2 h before stimulation. An equal volume of 0.5% DMSO was used as a vehicle control. Then, the cells were treated with LPS at 5 ug/ml, which was selected based on the pilot study. The supernatants from treated cells were harvested at 24 h and placed in a 96 well for Luminex cytokine & chemokine profiling using a Luminex 200 multiplex assay (Luminex; R&D system, USA).
(§2) The main study arm with triplicate wells per group in a 24-well plate: • 1. Blank • 2. PBMC: 0.5% DMSO • 3. PBMC+LPS (5 ug/ml) • 4. PBMC+YY-101 500 nM • 5. PBMC+YY-101 50 nM • 6. PBMC+YY-101 5 nM • 7. PBMC+YY-101 0.5 nM • 8. PBMC+LPS (5 ug/ml)+Xiidra® 500 nM • 9. PBMC+LPS (5 ug/ml)+Xiidra® 50 nM • 10. PBMC+LPS (5 ug/ml)+Xiidra® 5 nM • 11. PBMC+LPS (5 ug/ml)+Xiidra® 0.5 nM • 12. PBMC+LPS (5 ug/ml)+Xiidra® 0.05 nM • 13. PBMC+LPS (5 ug/ml)+Xiidra® 0.005 nM • 14. PBMC+LPS (5 ug/ml)+YY-101 500 nM • 15. PBMC+LPS (5 ug/ml)+YY-101 50 nM • 16. PBMC+LPS (5 ug/ml)+YY-101 5 nM • 17. PBMC+LPS (5 ug/ml)+YY-101 0.5 nM • 18. PBMC+LPS (5 ug/ml)+YY-101 0.05 nM • 19. PBMC+LPS (5 ug/ml)+YY-101 0.005 nM • 20. PBMC+LPS (5 ug/ml)+YDE-011 500 nM • 21. PBMC+LPS (5 ug/ml)+YDE-011 50 nM • 22. PBMC+LPS (5 ug/ml)+YDE-011 5 nM • 23. PBMC+LPS (5 ug/ml)+YDE-011 0.5 nM • 24. PBMC+LPS (5 ug/ml)+YDE-011 0.05 nM • 25. PBMC+LPS (5 ug/ml)+YDE-011 0.005 nM • 26. PBMC+LPS (5 ug/ml)+YDE-043 500 nM • 27. PBMC+LPS (5 ug/ml)+YDE-043 50 nM • 28. PBMC+LPS (5 ug/ml)+YDE-043 5 nM • 29. PBMC+LPS (5 ug/ml)+YDE-043 0.5 nM • 30. PBMC+LPS (5 ug/ml)+YDE-043 0.05 nM • 31. PBMC+LPS (5 ug/ml)+YDE-043 0.005 nM
(§3) Multiplex assay was used to measure 30 cytokines and chemokines. The 1:200 diluted cell supernatant and serial dilution of the standard were dispensed into a 96 well plate at 50 ul/well. Then, the pre-mixed cocktail of antibody-coated magnetic beads was dispensed at 50 ul/well and incubated at room temperature for 2 h in a horizontal orbital microplate shaker at 800±500 rpm. The beads were washed using a magnetic device to prevent loss. The biotin-antibody was dispensed in 50 ul of each well and incubated at room temperature for 1 h in a shaker at 800±500 rpm. After washing, streptavidin-PE was added at 50 ul/well and incubated at room temperature for 30 min in a shaker under the same conditions. Finally, after washing, wash buffer (100 ul/well) was added to the plate and incubated in a shaker for 2 min. The Luminex™ 200 setting were set according to the manufacturer's protocol. The data was calculated with a standard five-parameter logistic nonlinear regression analysis of the data (xPonent software 4.2, USA). Results were presented as concentration (ng/ml or pg/ml).

[2] = tested on: MMP-3; assay: Example 8 main study Luminex, LPS hPBMCs: MMP-3; format: cell-based, human; settings: for MMP-3 Concentration: single replicates
Method: as §1, §2, §3

[3] = PBMC + LPS(5 ug/ml) + test article 0.005 nM
[4] = PBMC + LPS(5 ug/ml) + test article 0.05 nM
[5] = PBMC + LPS(5 ug/ml) + test article 0.5 nM
[6] = PBMC + LPS(5 ug/ml) + test article 5 nM
[7] = PBMC + LPS(5 ug/ml) + test article 50 nM
[8] = PBMC + LPS(5 ug/ml) + test article 500 nM
[9] = at as low as 5 μM, LPS 5 ug/mL 24 hrs
[10] = PBMC + LPS(5 ug/ml) + YDE011 0.005 nM
[11] = PBMC + LPS(5 ug/ml) + YDE011 0.05 nM
[12] = PBMC + LPS(5 ug/ml) + YDE011 0.5 nM
[13] = PBMC + LPS(5 ug/ml) + YDE011 5 nM
[14] = PBMC + LPS(5 ug/ml) + YDE011 50 nM
[15] = PBMC + LPS(5 ug/ml) + YDE011 500 nM

CC(C)C[C@H](NC(=O)CNC(=O)[C@H](CC(C)C)NC(=O)[C@H](CCC(N)=O)NC(=O)CNC(=O)[C@@H]1C[C@@H](O)CN1)C(=O)N[C@@H](C)C(=O)NCC(=O)N1CCC[C@H]1C(=O)N[C@@H](CCCCN)C(=O)O [YDE-011] (H-[Hyp]GQLGLAGPK-OH)
IL-8/CXCL8 Concentration, Mean [1, 3]: 54720.2 pg/mL | IL-8/CXCL8 Concentration [1, 3]: 55905.6 pg/mL and 51994.7 pg/mL and 56260.2 pg/mL | IL-8/CXCL8 Concentration, Mean [1, 4]: 61143.7 pg/mL | IL-8/CXCL8 Concentration [1, 4]: 61568.6 pg/mL and 60755.7 pg/mL and 61106.8 pg/mL | IL-8/CXCL8 Concentration, Mean [1, 5]: 52309.1 pg/mL | IL-8/CXCL8 Concentration [1, 5]: 52927.0 pg/mL and 52269.8 pg/mL and 51730.5 pg/mL | IL-8/CXCL8 Concentration, Mean [1, 6]: 46534.3 pg/mL | IL-8/CXCL8 Concentration [1, 6]: 45587.7 pg/mL and 43107.6 pg/mL and 50907.7 pg/mL | IL-8/CXCL8 Concentration, Mean [1, 7]: 46922.1 pg/mL | IL-8/CXCL8 Concentration [1, 7]: 54235.8 pg/mL and 55272.7 pg/mL and 31257.8 pg/mL | IL-8/CXCL8 Concentration, Mean [1, 8]: 49501.9 pg/mL | IL-8/CXCL8 Concentration [1, 8]: 66288.2 pg/mL and 31741.3 pg/mL and 50476.2 pg/mL | LPS-induced IL-8 (in words) [1, 9]: significantly reduced | MMP-3 Concentration, Mean [2, 10]: 7336.4 pg/mL | MMP-3 Concentration [2, 10]: 7512.0 pg/mL and 7323.6 pg/mL and 7173.5 pg/mL | MMP-3 Concentration, Mean [2, 11]: 7638.4 pg/mL | MMP-3 Concentration [2, 11]: 7474.3 pg/mL and 7928.9 pg/mL and 7512.0 pg/mL | MMP-3 Concentration, Mean [2, 12]: 7136.1 pg/mL | MMP-3 Concentration [2, 12]: 7248.5 pg/mL and 7098.6 pg/mL and 7061.2 pg/mL | MMP-3 Concentration, Mean [2, 13]: 6802.1 pg/mL | MMP-3 Concentration [2, 13]: 6282.7 pg/mL and 6800.1 pg/mL and 7323.6 pg/mL | MMP-3 Concentration, Mean [2, 14]: 6735.1 pg/mL | MMP-3 Concentration [2, 14]: 7248.5 pg/mL and 7474.3 pg/mL and 5482.5 pg/mL | MMP-3 Concentration, Mean [2, 15]: 6625.8 pg/mL | MMP-3 Concentration [2, 15]: 7776.9 pg/mL and 5374.6 pg/mL and 6725.8 pg/mL | LPS-induced MMP3 (in words) [2, 9]: significantly reduced

— patent publication US20230146455A1, “TREATMENT OF INFLAMMATORY DISEASES WITH PEPTIDES AND PHARMACEUTICAL COMPOSITIONS” (Yuyu Pharma, Inc., priority 2020, published 2023)
